From US9688698B2, “Heteroaromatic compounds and their use as dopamine D1 ligands” (PFIZER INC., priority 2014, dated 2017)
Structures can show the parent of a compound that is named as a salt.

Target: T1, Human D1 Receptor (Homo sapiens, UniProt P21728)
T1 construct: expressed in transfected cells; host or cells: LTK cell line over-expressing the D1 receptor
Test: Human D1 Receptor Binding Assay ([3H]-SCH23390 competition binding)
Details: over-expressing LTK human cell lines; 0.5 nM [3H]-SCH23390; 30 min at 37° C.; footnote a = geometric mean of ≧5 determinations, footnote b = single determination; read-out: Human D1 Receptor Binding, Ki (nM); Geometric mean of 2-4 determinations (unless otherwise indicated)

T1 sequence (P21728 whole entry): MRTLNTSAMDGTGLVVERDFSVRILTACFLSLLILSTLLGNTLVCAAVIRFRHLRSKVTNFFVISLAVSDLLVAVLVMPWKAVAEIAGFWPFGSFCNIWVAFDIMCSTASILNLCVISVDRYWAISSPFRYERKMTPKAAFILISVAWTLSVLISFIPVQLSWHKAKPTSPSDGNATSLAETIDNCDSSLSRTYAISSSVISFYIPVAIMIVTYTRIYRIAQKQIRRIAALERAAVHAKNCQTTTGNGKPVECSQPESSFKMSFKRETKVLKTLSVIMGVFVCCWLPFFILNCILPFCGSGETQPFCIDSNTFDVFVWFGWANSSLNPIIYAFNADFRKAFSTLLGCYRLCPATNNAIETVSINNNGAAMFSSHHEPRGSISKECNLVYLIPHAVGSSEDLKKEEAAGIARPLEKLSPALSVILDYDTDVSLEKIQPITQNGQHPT

Row | Structure (SMILES) | Ki
1 | Cc1cc(Oc2ncnc3ncsc23)ccc1-c1c(C)ncnc1C [Example 57, 7-[4-(4,6-dimethylpyrimidin-5-yl)-3-methylphenoxy][1,3]thiazolo[4,5-d]pyrimidine] | 2340 nM
2 | COc1cc(Oc2ncnc3ccsc23)ccc1-c1c(C)ncnc1C [Example 23, 4-[4-(4,6-dimethylpyrimidin-5-yl)-3-methoxyphenoxy]thieno[3,2-d]pyrimidine] | 178 nM
3 | Cc1ncnc(C)c1-c1ccc(Oc2nccc3ncsc23)cc1Cl [Example 31, 4-[3-chloro-4-(4,6-dimethylpyrimidin-5-yl)phenoxy][1,3]thiazolo[5,4-c]pyridine] | 71.9 nM

Molecules with a lower Ki, results first:

Row | Ki | Structure (SMILES)
4 | 46.3 nM | Cc1cnnc(C)c1-c1ccc(Oc2nccc3ccsc23)cc1C#N [Example 43, 2-(3,5-dimethylpyridazin-4-yl)-5-(thieno[2,3-c]pyridin-7-yloxy)benzonitrile, trifluoroacetate salt]
5 | 24.3 nM | Cc1ncnc(C)c1-c1cc(F)c(Oc2nccc3ccsc23)cc1F [Example 41, 7-[4-(4,6-dimethylpyrimidin-5-yl)-2,5-difluorophenoxy]thieno[2,3-c]pyridine]
